Experimental data as given in ChEMBL document CHEMBL1201862, “PubChem BioAssay data set” (2004).
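96-well plates; 48 h exposure; 5 concentrations. Endpoints by linear interpolation between flanking doses. Not reached: highest tested concentration assigned. At the GI50, growth is halved.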 Activity calls are given as the source filed them. Cut-off read from the data, not from the text of the source: active = GI50 up to about 1.1 µM and inactive = higher.

Columns and labels:
Experiment in all cases: growth of human tumour cells (NCI), 48 h
786-0 = tested on: 786-0
A498 = tested on: A498
A549 = tested on: A549
ACHN = tested on: ACHN
CCRF-CEM = tested on: CCRF-CEM
COLO 205 = tested on: COLO 205
DMS-114 = tested on: DMS-114
DMS-273 = tested on: DMS-273
EKVX = tested on: EKVX
HCT-116 = tested on: HCT-116
HCT-15 = tested on: HCT-15
HOP-18 = tested on: HOP-18
HOP-92 = tested on: HOP-92
HT-29 = tested on: HT-29
IGROV-1 = tested on: IGROV-1
K562 = tested on: K562
KM-20L2 = tested on: KM-20L2
KM12 = tested on: KM12
LOX IMVI = tested on: LOX IMVI
LXFL 529 = tested on: LXFL 529
M14 = tested on: M14
M19-MEL = tested on: M19-MEL
MOLT-4 = tested on: MOLT-4
Malme-3M = tested on: Malme-3M
NCI-H226 = tested on: NCI-H226
NCI-H23 = tested on: NCI-H23
NCI-H460 = tested on: NCI-H460
NCI-H522 = tested on: NCI-H522
OVCAR-3 = tested on: OVCAR-3
OVCAR-4 = tested on: OVCAR-4
OVCAR-5 = tested on: OVCAR-5
OVCAR-8 = tested on: OVCAR-8
RPMI-8226 = tested on: RPMI-8226
RXF 393 = tested on: RXF 393
RXF 631 = tested on: RXF 631
SF-268 = tested on: SF-268
SF-295 = tested on: SF-295
SF-539 = tested on: SF-539
SK-MEL-28 = tested on: SK-MEL-28
SK-MEL-2 = tested on: SK-MEL-2
SK-OV-3 = tested on: SK-OV-3
SN12C = tested on: SN12C
SNB-19 = tested on: SNB-19
SNB-75 = tested on: SNB-75
SNB-78 = tested on: SNB-78
SW-620 = tested on: SW-620
TK-10 = tested on: TK-10
U-251 = tested on: U-251
UACC-257 = tested on: UACC-257
UACC-62 = tested on: UACC-62
UO-31 = tested on: UO-31
XF498 = tested on: XF498
CAKI-1 = tested on: CAKI-1
DLD-1 = tested on: DLD-1
HL-60 = tested on: HL-60
HOP-62 = tested on: HOP-62
SK-MEL-5 = tested on: SK-MEL-5

## O=C(O)C1=CCCc2ccc3ccccc3c21
786-0
  GI50: > 100 µM (inactive)
A498
  GI50: > 100 µM (inactive)
A549
  GI50: > 100 µM (inactive)
ACHN
  GI50: > 100 µM (inactive)
CCRF-CEM
  GI50: > 10 µM (inactive)
COLO 205
  GI50: > 100 µM (inactive)
DMS-114
  GI50: > 100 µM (inactive)
DMS-273
  GI50: > 100 µM (inactive)
EKVX
  GI50: > 100 µM (inactive)
HCT-116
  GI50: > 100 µM (inactive)
HCT-15
  GI50: > 100 µM
HOP-18
  GI50: 21.6 µM (inactive)
HOP-92
  GI50: > 100 µM (inactive)
HT-29
  GI50: > 100 µM (inactive)
IGROV-1
  GI50: > 100 µM (inactive)
K562
  GI50: > 100 µM (inactive)
KM-20L2
  GI50: > 100 µM (inactive)
KM12
  GI50: > 100 µM (inactive)
LOX IMVI
  GI50: > 100 µM (inactive)
LXFL 529
  GI50: > 100 µM (inactive)
M14
  GI50: > 100 µM (inactive)
M19-MEL
  GI50: > 100 µM (inactive)
MOLT-4
  GI50: > 100 µM (inactive)
Malme-3M
  GI50: > 100 µM (inactive)
NCI-H226
  GI50: > 100 µM (inactive)
NCI-H23
  GI50: > 100 µM (inactive)
NCI-H460
  GI50: > 100 µM (inactive)
NCI-H522
  GI50: > 100 µM (inactive)
OVCAR-3
  GI50: > 100 µM (inactive)
OVCAR-4
  GI50: > 100 µM (inactive)
OVCAR-5
  GI50: > 100 µM (inactive)
OVCAR-8
  GI50: > 100 µM (inactive)
RPMI-8226
  GI50: > 100 µM (inactive)
RXF 393
  GI50: > 100 µM (inactive)
RXF 631
  GI50: > 100 µM (inactive)
SF-268
  GI50: > 100 µM (inactive)
SF-295
  GI50: > 100 µM (inactive)
SF-539
  GI50: > 100 µM (inactive)
SK-MEL-28
  GI50: > 100 µM (inactive)
SK-MEL-2
  GI50: > 100 µM (inactive)
SK-OV-3
  GI50: > 100 µM (inactive)
SN12C
  GI50: > 100 µM (inactive)
SNB-19
  GI50: > 100 µM (inactive)
SNB-75
  GI50: 85.3 µM (inactive)
SNB-78
  GI50: > 100 µM (inactive)
SW-620
  GI50: > 100 µM (inactive)
TK-10
  GI50: > 100 µM (inactive)
U-251
  GI50: > 100 µM (inactive)
UACC-257
  GI50: > 100 µM (inactive)
UACC-62
  GI50: > 100 µM (inactive)
UO-31
  GI50: > 100 µM (inactive)
XF498
  GI50: > 100 µM (inactive)

## NS(=O)(=O)c1ccc(NC(=O)c2cccc3c(Nc4ccc(S(N)(=O)=O)cc4)c4ccccc4nc23)cc1
786-0
  GI50: 25.3 µM (inactive)
A498
  GI50: > 100 µM (inactive)
A549
  GI50: > 100 µM (inactive)
ACHN
  GI50: > 100 µM (inactive)
CAKI-1
  GI50: 38.2 µM (inactive)
CCRF-CEM
  GI50: 6.18 µM (inactive)
COLO 205
  GI50: 54.5 µM (inactive)
DLD-1
  GI50: 24.7 µM (inactive)
DMS-114
  GI50: 39.3 µM (inactive)
DMS-273
  GI50: 1.85 µM (inactive)
EKVX
  GI50: > 100 µM (inactive)
HCT-116
  GI50: 46.8 µM (inactive)
HCT-15
  GI50: 37.3 µM
HL-60
  GI50: 28.6 µM (inactive)
HOP-18
  GI50: > 100 µM (inactive)
HOP-62
  GI50: > 100 µM (inactive)
HOP-92
  GI50: 33.8 µM (inactive)
HT-29
  GI50: 14.6 µM (inactive)
IGROV-1
  GI50: > 100 µM (inactive)
K562
  GI50: 11.3 µM (inactive)
KM-20L2
  GI50: 67.1 µM (inactive)
KM12
  GI50: 4.47 µM (inactive)
LOX IMVI
  GI50: 5.55 µM (inactive)
LXFL 529
  GI50: 12.2 µM (inactive)
M14
  GI50: > 100 µM (inactive)
M19-MEL
  GI50: 21.4 µM (inactive)
MOLT-4
  GI50: 4.5 µM (inactive)
Malme-3M
  GI50: 43.9 µM (inactive)
NCI-H23
  GI50: 87.5 µM (inactive)
NCI-H460
  GI50: > 100 µM (inactive)
NCI-H522
  GI50: 10.8 µM (inactive)
OVCAR-3
  GI50: 13.6 µM (inactive)
OVCAR-4
  GI50: 22.4 µM (inactive)
OVCAR-5
  GI50: > 100 µM (inactive)
OVCAR-8
  GI50: 48.5 µM (inactive)
RPMI-8226
  GI50: 9.25 µM (inactive)
RXF 393
  GI50: 52.5 µM (inactive)
RXF 631
  GI50: 3.48 µM (inactive)
SF-268
  GI50: 15.5 µM (inactive)
SF-295
  GI50: 31.6 µM (inactive)
SF-539
  GI50: 20.8 µM (inactive)
SK-MEL-28
  GI50: > 100 µM (inactive)
SK-MEL-2
  GI50: 20 µM (inactive)
SK-MEL-5
  GI50: 41.2 µM (inactive)
SK-OV-3
  GI50: > 100 µM (inactive)
SN12C
  GI50: 31.8 µM (inactive)
SNB-19
  GI50: 30.8 µM (inactive)
SNB-75
  GI50: 14.3 µM (inactive)
SNB-78
  GI50: 29.8 µM (inactive)
SW-620
  GI50: 29.4 µM (inactive)
TK-10
  GI50: > 100 µM (inactive)
U-251
  GI50: 21.2 µM (inactive)
UACC-257
  GI50: 32.9 µM (inactive)
UACC-62
  GI50: 31.8 µM (inactive)
UO-31
  GI50: 93.5 µM (inactive)
XF498
  GI50: 27.2 µM (inactive)
